Laboratory results: US9650339B2, “Inhibitors of histone demethylases” (Gilead Sciences, Inc., priority 2013, dated 2017)

Tests used:
KDM5B = target: T1, KDM5B (Homo sapiens, UniProt Q9UGL1); assay: Histone lysine demethylase immunofluorescence assay, U2OS cells transfected with KDM5B; format: cell-based; conditions: U2OS cells transfected with pCMVHA KDM5B; mark detected H3K4me2; 20 hours
T1 construct: (a.a. 1-752); host or cells: U2OS
T1 sequence (Q9UGL1 1-752): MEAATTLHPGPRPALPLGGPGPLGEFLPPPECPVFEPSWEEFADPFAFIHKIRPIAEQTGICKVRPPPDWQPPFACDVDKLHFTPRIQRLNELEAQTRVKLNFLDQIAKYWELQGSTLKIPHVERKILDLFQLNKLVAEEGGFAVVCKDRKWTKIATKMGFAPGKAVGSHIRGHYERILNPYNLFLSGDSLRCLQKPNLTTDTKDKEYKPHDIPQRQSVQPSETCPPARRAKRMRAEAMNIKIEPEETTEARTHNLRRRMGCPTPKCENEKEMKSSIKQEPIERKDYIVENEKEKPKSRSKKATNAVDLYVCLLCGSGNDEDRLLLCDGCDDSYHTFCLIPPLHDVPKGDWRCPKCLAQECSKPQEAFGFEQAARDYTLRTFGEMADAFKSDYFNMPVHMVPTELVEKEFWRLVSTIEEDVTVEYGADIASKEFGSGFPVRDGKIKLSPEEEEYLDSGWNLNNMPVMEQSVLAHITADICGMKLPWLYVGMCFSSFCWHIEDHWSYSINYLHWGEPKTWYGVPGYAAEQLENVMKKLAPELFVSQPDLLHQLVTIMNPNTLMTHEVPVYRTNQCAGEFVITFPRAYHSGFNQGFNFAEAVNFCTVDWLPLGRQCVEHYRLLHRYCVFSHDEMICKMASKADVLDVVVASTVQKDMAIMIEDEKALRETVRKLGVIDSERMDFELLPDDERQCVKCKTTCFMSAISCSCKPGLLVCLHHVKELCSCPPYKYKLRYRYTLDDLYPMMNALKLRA
Procedure: (§1) U2OS cells were seeded 24 hours before transfection. Transfection was performed with Fugene HD transfection reagent as recommended by the manufacturer. 6 hours after transfection, the cells were harvested and seeded into multi well plates into media containing compound. The media used was DMEM containing 10% FBS and pen/strep. 20 hours after incubation of cells with compounds, the cells were washed in PBS, harvested by fixation with formaldehyde 4% aqueous solution, and washed in PBS. Subsequently, the cells were permeabilized in PBS with 0.2% Triton X-100 for. Blocking was performed in PBS with 0.2% Triton X-100 and 5% FBS. The cells were incubated with primary antibodies in blocking solution over night at 4° C. The primary antibodies used in the assays were HA.11 (Covance, MMS-101P) and the antibody detecting the mark specified in the table below. After incubation with primary antibodies, the cells were washed with PBS, incubated with secondary antibodies (Alexa fluor 594 goat anti rabbit IgG, Invitrogen, A11012; Alexa flour 488 donkey anti mouse IgG, Invitrogen, A21202) and Hoechst, (Sigma, 33342) in blocking solution, and washed again with PBS. Finally, PBS was added and high throughput imaging and analysis were performed by an IN Cell Analyzer 1000 (GE Healthcare). The robot software analyzed individual cells and divided these into HA+ (transfected cells) and HA− (non-transfected cells). The IC50 values were based on an average measure of the staining of the mark specified in the table below in the transfected cells.

KDM6B (JMJD3) = target: T2, KDM6B (JMJD3) (Homo sapiens, UniProt O15054); assay: Histone lysine demethylase AlphaLISA assay, KDM6B; format: biochemical; conditions: read-out: KDM6B HDME Inhibition IC50
T2 construct: 1043-end; purchased BPS; host or cells: Bac (baculovirus system)
Procedure: Assays are performed analogously to the protocol described by PerkinElmer (Roy et al. PerkinElmer Technical Note: AlphaLISA #12, April 2011)
Enzymes are dissolved in enzyme buffer and incubated for 10 min before being added to 3% DMSO solutions of compounds in enzyme buffer. Incubated for another 10 minutes, before substrate solution is added and the reaction mixture is incubated at room temperature. 10 μL acceptor beads, suspended in Epigenetic Buffer (Perkin Elmer AL008) from stock, are added and the suspension is incubated in the dark at room temperature, before a suspension of streptavidin donor beads (Perkin Elmer 6760002) in Epigenetic Buffer is added. After incubation at room temperature in the dark the plates are read. […]
BK27M3: Biotin-ATKAAR(Kme3)SAPATGGVKKPHRY-NH2? (Caslo, Denmark) […]
Substrate Solution: Substrate, 25 μM L-Asc, and 10 μM α-KG in Buffer A.

KDM6A (UTX) = KDM6A (UTX) (Homo sapiens, UniProt O15550); assay: Histone lysine demethylase AlphaLISA assay, KDM6A; format: biochemical; conditions: read-out: KDM6A HDME Inhibition IC50
Procedure, shortened: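 AlphaLISA demethylation readout: enzyme preincubated 10 min, then 10 min with compounds in 3% DMSO buffer, before biotinylated methyl-lysine histone peptide substrate with 25 μM L-Asc and 10 μM α-KG, room temperature. Acceptor beads then streptavidin donor beads added, dark incubation, plates read.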

KDM4C = target: T3, KDM4C (Homo sapiens, UniProt Q9H3R0); assay: Histone lysine demethylase immunofluorescence assay, U2OS cells transfected with KDM4C; format: cell-based; conditions: U2OS cells transfected with pCMVHA KDM4C; mark detected H3K9me3; 20 hours
T3 construct: Full length; host or cells: U2OS
T3 sequence (Q9H3R0 1-1056): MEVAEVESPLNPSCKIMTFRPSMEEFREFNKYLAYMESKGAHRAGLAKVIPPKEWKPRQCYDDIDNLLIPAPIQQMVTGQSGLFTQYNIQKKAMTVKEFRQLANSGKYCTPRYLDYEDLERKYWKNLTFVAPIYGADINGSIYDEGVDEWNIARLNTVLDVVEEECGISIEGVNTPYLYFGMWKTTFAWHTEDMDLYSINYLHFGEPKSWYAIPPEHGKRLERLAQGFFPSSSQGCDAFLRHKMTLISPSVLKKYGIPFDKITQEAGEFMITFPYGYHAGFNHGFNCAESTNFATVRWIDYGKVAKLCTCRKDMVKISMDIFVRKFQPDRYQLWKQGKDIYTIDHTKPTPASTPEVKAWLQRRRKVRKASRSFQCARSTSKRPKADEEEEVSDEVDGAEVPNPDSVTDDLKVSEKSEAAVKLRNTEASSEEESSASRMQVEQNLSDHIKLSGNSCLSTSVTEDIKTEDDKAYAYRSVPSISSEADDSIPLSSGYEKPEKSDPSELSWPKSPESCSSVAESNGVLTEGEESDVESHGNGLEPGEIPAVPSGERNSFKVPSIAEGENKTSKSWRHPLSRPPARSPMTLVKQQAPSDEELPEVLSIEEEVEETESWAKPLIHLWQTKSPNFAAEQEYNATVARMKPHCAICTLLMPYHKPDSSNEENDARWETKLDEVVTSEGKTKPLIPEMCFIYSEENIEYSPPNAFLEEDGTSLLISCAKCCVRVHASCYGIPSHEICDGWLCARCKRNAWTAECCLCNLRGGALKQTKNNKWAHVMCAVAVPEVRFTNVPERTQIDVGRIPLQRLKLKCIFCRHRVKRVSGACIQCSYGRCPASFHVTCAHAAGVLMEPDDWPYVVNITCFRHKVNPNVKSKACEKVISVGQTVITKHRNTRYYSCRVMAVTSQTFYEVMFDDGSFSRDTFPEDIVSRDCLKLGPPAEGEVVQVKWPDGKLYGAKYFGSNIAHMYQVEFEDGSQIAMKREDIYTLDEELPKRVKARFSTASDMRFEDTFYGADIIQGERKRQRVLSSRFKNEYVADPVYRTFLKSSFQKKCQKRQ
Procedure: as §1

T2 sequence (O15054 1043-1682 isoform O15054-1 limits assumed): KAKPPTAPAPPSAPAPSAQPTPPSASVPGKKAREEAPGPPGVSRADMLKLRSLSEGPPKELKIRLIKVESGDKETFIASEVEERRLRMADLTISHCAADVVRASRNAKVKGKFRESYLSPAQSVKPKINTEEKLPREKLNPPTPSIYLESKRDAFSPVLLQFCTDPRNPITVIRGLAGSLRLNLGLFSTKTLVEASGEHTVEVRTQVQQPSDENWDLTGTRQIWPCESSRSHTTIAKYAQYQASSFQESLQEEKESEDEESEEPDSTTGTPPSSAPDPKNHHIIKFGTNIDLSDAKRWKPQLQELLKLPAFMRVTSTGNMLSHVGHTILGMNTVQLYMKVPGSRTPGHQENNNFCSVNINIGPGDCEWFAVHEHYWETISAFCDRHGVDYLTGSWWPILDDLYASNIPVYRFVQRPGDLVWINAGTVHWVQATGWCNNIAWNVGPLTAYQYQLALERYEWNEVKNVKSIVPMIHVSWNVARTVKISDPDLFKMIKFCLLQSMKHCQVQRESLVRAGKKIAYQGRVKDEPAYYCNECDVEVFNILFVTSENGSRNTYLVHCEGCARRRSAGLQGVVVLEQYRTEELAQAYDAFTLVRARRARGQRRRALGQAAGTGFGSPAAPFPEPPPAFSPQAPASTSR
Sequence of KDM6A (UTX) (O15550 919-1401): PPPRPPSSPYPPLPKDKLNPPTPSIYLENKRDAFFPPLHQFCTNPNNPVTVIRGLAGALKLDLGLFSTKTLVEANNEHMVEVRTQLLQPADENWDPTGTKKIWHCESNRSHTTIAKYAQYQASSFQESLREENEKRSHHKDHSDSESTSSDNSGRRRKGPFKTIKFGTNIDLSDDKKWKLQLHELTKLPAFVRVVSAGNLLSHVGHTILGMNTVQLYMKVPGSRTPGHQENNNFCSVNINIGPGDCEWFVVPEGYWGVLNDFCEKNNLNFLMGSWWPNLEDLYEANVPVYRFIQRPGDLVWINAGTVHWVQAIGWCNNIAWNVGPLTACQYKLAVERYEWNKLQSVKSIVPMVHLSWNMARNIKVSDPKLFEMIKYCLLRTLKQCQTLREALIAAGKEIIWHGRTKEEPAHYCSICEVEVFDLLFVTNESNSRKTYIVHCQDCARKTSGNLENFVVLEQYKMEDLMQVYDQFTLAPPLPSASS

SMILES	IC50 (KDM5B) [µM]	IC50 (KDM6B (JMJD3)) [µM]	IC50 (KDM6A (UTX)) [µM]	IC50 (KDM4C) [µM]
CN(C)CCC/N=C/c1ccnc(CNCCCN(C)C)c1 [Compound 37, [3-(dimethylamino)propyl]-({4-[{[3-(dimethylamino)propyl]-imino}methyl]pyridin-2-yl}methyl)amine]	< 0.25	> 2.5	–	0.25 to 2.5
OCC/N=C/c1ccnc(CNCCc2ccccc2OCc2ccccc2)c1 [Compound 93, 2-[({2-[({2-[2-(benzyloxy)phenyl]-ethyl}amino)methyl]-pyridin-4-yl}methylidene)-amino]ethan-1-ol]	> 2.5	–	> 2.5	> 2.5
CCN(CCC#N)C(=O)CNCc1cc(/C=N/CCO)ccn1 [Compound 94, N-(2-cyanoethyl)-N-ethyl-2-[({4-[[(2-hydroxyethyl)imino]-methyl]pyridin-2-yl}methyl)amino]-acetamide]	0.25 to 2.5	–	> 2.5	> 2.5
CC(C)C[C@H](NCc1cc(/C=N/CCO)ccn1)C(=O)N1CCCCC1 [Compound 95, (2S)-2-[({4-[[(2-hydroxyethyl)imino]-methyl]pyridin-2-yl}methyl)amino]-4-methyl-1-(piperidin-1-yl)pentan-1-one]	> 2.5	–	> 2.5	> 2.5
CN(C)CCCCCNCc1cc(C=O)ccn1 [Compound 114, 2-({[5-(dimethylamino)-pentyl]amino}methyl)-pyridine-4-carbaldehyde]	< 0.25	> 2.5	–	> 2.5
CCN(CC(C)(C)N(C)C)C(=O)CNCc1cc(C=O)ccn1 [Compound 118, N-[2-(dimethylamino)-2-methylpropyl]-N-ethyl-2-{[(4-formylpyridin-2-yl)methyl]amino}-acetamide]	< 0.25	–	> 2.5	0.25 to 2.5
CN(CC(=O)N1CCCCC1)Cc1cc(C=O)ccn1 [Compound 120, 2-({methyl[2-oxo-2-(piperidin-1-yl)ethyl]amino}-methyl)pyridine-4-carbaldehyde]	> 2.5	–	> 2.5	> 2.5

Next, values leading:

IC50 (KDM5B) [µM]	IC50 (KDM6B (JMJD3)) [µM]	IC50 (KDM6A (UTX)) [µM]	IC50 (KDM4C) [µM]	SMILES
> 2.5	> 2.5	> 2.5	–	c1ccc(CN2CCC[C@H]2CNCc2cc(CNCC3CC3)ccn2)cc1 [Compound 16, {[(2S)-1-benzylpyrrolidin-2-yl]methyl}[(4-{[(cyclopropylmethyl)-amino]methyl}pyridin-2-yl)methyl]amine]
< 0.25	> 2.5	> 2.5	–	CCN(CCN(C)C)C(=O)CNCc1cc(CNC(=O)C(F)(F)F)ccn1 [Compound 25, N-[(2-{[({[2-(dimethylamino)ethyl]-(ethyl)carbamoyl}-methyl)amino]methyl}-pyrtdin-4-yl)methyl]-2,2,2-trifluoroacetamide]
–	0.25 to 2.5	> 2.5	–	C(=N\C1CC1)/c1ccnc(CNCCCCN2CCC2)c1 [Compound 44, N-{[2-({[4-(azetidin-1-yl)butyl]amino}methyl)-pyridin-4-yl]methylidene}-cyclopropanamine]
–	> 2.5	> 2.5	–	CCN(CC)C(=O)CNCc1cc(/C=N/CCC2CCCCC2)ccn1 [Compound 57, 2-[({4-[[(2-cyclohexylethyl)imino]-methyl]pyridin-2-yl}methyl)amino]-N,N-diethylacetamide]
–	> 2.5	> 2.5	–	CCCCCCCC/N=C/c1ccnc(CNCC(=O)N(CC)CC)c1 [Compound 58, N,N-diethyl-2-[({4-[(octylimino)methyl]-pyridin-2-yl}methyl)amino]-acetamide]
–	> 2.5	> 2.5	–	CCN(CC)CCCCNCc1cc(/C=N/CCOC)ccn1 [Compound 60, [4-(diethylamino)butyl]-({4-[[(2-methoxyethyl)imino]-methyl]pyridin-2-yl}methyl)amine]
< 0.25	–	> 2.5	0.25 to 2.5	CCN(CC)CCCCNCc1cc(/C=N\CCC2CCCCC2)ccn1 [Compound 67, (2-cyclohexylethyl)-({[2-({[4-(diethylamino)-butyl]amino}methyl)pyridin-4-yl]methylidene})-amine]
< 0.25	–	> 2.5	–	CCN(CCN(C)C)C(=O)CNCc1cc(C2OCC(Cc3ccccc3)CN2C(=O)C(F)(F)F)ccn1 (stereo not drawn) [Compound 90, 2-[({4-[5-benzyl-3-(trifluoroacetyl)-1,3-oxazinan-2-yl]pyridin-2-yl}methyl)amino]-N-[2-(dimethylamino)-ethyl]-N-ethylacetamide]
< 0.25	–	> 2.5	–	CCN(CCN(C)C)C(=O)CNCc1cc(C2OCC3(CC3)CN2C(=O)C(F)(F)F)ccn1 (stereo not drawn) [Compound 91, N-[2--(dimethylamino)-ethyl]-N-ethyl-2-[({4-[7-(trifluoroacetyl)-5-oxa-7-azaspiro[2.5]-octan-6-yl]pyridin-2-yl}methyl)amino]-acetamide]
> 2.5	–	> 2.5	> 2.5	CN(Cc1ccccc1F)C(=O)CNCc1cc(/C=N/CCO)ccn1 [Compound 92, N-[(2-fluorophenyl)methyl]-2-[({4-[[(2-hydroxyethyl)imino]-methyl]pyridin-2-yl}methyl)amino]-N-methylacetamide]
